Some test systems named below: BT-549 breast; A498 renal; SF-295 CNS; UACC-257 melanoma; SW-620 colon; HOP-92 NSCLC; A549 NSCLC; HCT-15 colon; HCT-116 colon; UACC-62 melanoma.
Holding throughout (assay): growth of human tumour cells (NCI), 48 h

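Each compound was tested at five concentrations against cells in 96-well plates for 48 hours. GI50 marks 50% less growth. The concentration for full growth arrest is given as TGI.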

For the compound `C[C@H]1[C@H](C)CC[C@]2(C(=O)OC3OC(CO)C(O)C(O)C3O)CC[C@]3(C)C(=CC[C@@H]4[C@@]5(C)C[C@@H](O)[C@@H]6OC(=O)c7cc(O)c(O)c(O)c7-c7c(cc(O)c(O)c7O)C(=O)OC[C@@]6(CO)[C@@H]5CC[C@]43C)[C@H]12` (stereo partly specified), the TGI was above 100 µM in the test on BT-549 breast; above 100 µM in the test on A498 renal; above 100 µM in the test on SF-295 CNS; above 100 µM with UACC-257 melanoma; above 67 µM with SW-620 colon; above 100 µM in the test with HOP-92 NSCLC. In addition, the TGI in the test with A549 NSCLC, with HCT-15 colon, in the test on HCT-116 colon and in the test with UACC-62 melanoma was above 100 µM in each case.
As for `NC(=O)C1CCN(Cc2c(Cl)c(Cl)c(CN3CCC(C(N)=O)CC3)c(Cl)c2Cl)CC1`, the TGI in the test on BT-549 breast is above 100 µM; in the test on A498 renal it was 90.6 µM; with SF-295 CNS, 75.3 µM; in the test with UACC-257 melanoma it was above 100 µM; in the test with SW-620 colon, above 100 µM; in the test with HOP-92 NSCLC it was above 100 µM. The TGI with A549 NSCLC, with HCT-15 colon, in the test with HCT-116 colon and in the test on UACC-62 melanoma was above 100 µM throughout.
For the compound `N#CCCN(CCC#N)c1ccc(C(N=Nc2ccccc2)=Nc2ccc(F)cc2)cc1`, the TGI in the test on BT-549 breast, in the test on A498 renal, in the test with SF-295 CNS, in the test with UACC-257 melanoma, in the test with SW-620 colon and with HOP-92 NSCLC was above 100 µM throughout. Also, the TGI in the test on A549 NSCLC, in the test with HCT-15 colon, in the test with HCT-116 colon and in the test on UACC-62 melanoma was above 100 µM in each case.
Regarding `O=C(c1ccc([N+](=O)[O-])cc1)N1CCCC1`, the TGI in the test on BT-549 breast, with A498 renal, in the test with SF-295 CNS, in the test on UACC-257 melanoma, in the test with SW-620 colon and in the test on HOP-92 NSCLC was above 100 µM in each case. The TGI in the test on A549 NSCLC, with HCT-15 colon, with HCT-116 colon and with UACC-62 melanoma was above 100 µM throughout.
Consider `O=C1c2cc3c(cc2-c2c1c1ccc(Cl)cc1c(=O)n2CCCn1ccnc1)OCO3`, for which the GI50 in the test with BT-549 breast is 0.0491 µM; in the test on A498 renal it was 0.025 µM; in the test with SF-295 CNS it was below 0.01 µM; in the test with UACC-257 melanoma it was 0.0584 µM; in the test on SW-620 colon, below 0.01 µM; in the test on HOP-92 NSCLC it was 0.0229 µM. Moreover, the GI50 was 0.0136 µM with A549 NSCLC, 0.0431 µM in the test on HCT-15 colon, below 0.01 µM with HCT-116 colon and below 0.01 µM with UACC-62 melanoma. The TGI is above 100 µM with BT-549 breast; 10 µM in the test on SF-295 CNS; above 100 µM with UACC-257 melanoma; above 100 µM with SW-620 colon; 0.491 µM with HOP-92 NSCLC; above 100 µM in the test with A549 NSCLC. Besides, the TGI in the test with HCT-15 colon is above 100 µM; in the test with HCT-116 colon, 11 µM; in the test on UACC-62 melanoma it was 0.0296 µM.
With `O=c1c2ccc(Cl)cc2oc2c(CNc3ccc(S(=O)(=O)Nc4ncccn4)cc3)cccc12`, the TGI in the test on BT-549 breast, in the test with A498 renal, in the test with SF-295 CNS, in the test on UACC-257 melanoma, in the test on SW-620 colon and with HOP-92 NSCLC was above 100 µM throughout. In addition, the TGI in the test with A549 NSCLC, in the test with HCT-15 colon, in the test with HCT-116 colon and in the test with UACC-62 melanoma was above 100 µM each time.
For the compound `CCc1nc2c(c(N(C)C)c1C(=O)OC)CCc1ccccc1-2`, the TGI in the test on BT-549 breast is above 100 µM; in the test with A498 renal, 75.3 µM; in the test on SF-295 CNS, 50.9 µM; with UACC-257 melanoma, 68.9 µM; in the test on SW-620 colon it was above 100 µM; in the test with HOP-92 NSCLC it was above 100 µM. For the same compound, the TGI in the test on A549 NSCLC was above 100 µM; with HCT-15 colon it was above 100 µM; with HCT-116 colon, above 100 µM; in the test with UACC-62 melanoma, 40.4 µM.
Turning to `COC1(CC[C@H](C)COC2OC(CO)C(O)C(O)C2O)O[C@H]2C[C@H]3[C@@H]4CC=C5C[C@@H](OC6OC(CO)C(OC7OC(C)C(O)C(O)C7O)C(O)C6OC6OC(C)C(O)C(O)C6O)CC[C@]5(C)[C@H]4CC[C@]3(C)[C@H]2[C@@H]1C` (stereo partly specified), the TGI in the test with BT-549 breast worked out at 13.1 µM; in the test on A498 renal, 64.5 µM; in the test on SF-295 CNS it was 13.6 µM; in the test on UACC-257 melanoma it was 28.7 µM; in the test on SW-620 colon, 6.78 µM; in the test on HOP-92 NSCLC, 6.2 µM. The TGI is 4.28 µM with A549 NSCLC, 7.47 µM in the test on HCT-15 colon, 8.34 µM in the test on HCT-116 colon and 21.6 µM in the test with UACC-62 melanoma. The GI50 is 2.92 µM with HCT-116 colon and 6.95 µM in the test with UACC-62 melanoma.
Consider `CCN(CC)CCCCNc1c2ccc(Cl)cc2nc2ccc(OC)cc12`, for which the GI50 in the test on BT-549 breast is 1.85 µM; in the test with A498 renal it was 1.21 µM; in the test with SF-295 CNS, 0.717 µM; in the test with UACC-257 melanoma it was 1.8 µM; in the test on SW-620 colon it was 0.277 µM; with HOP-92 NSCLC, 0.271 µM. For the same compound, the GI50 in the test with A549 NSCLC is 0.367 µM; in the test on HCT-15 colon, 0.289 µM; with HCT-116 colon, 0.301 µM; in the test with UACC-62 melanoma, 1.69 µM. For the same compound, the TGI with BT-549 breast is 3.77 µM; in the test with A498 renal it was 2.52 µM; in the test with SF-295 CNS, 2.47 µM; in the test with UACC-257 melanoma it was 3.91 µM; in the test with SW-620 colon it was 2.12 µM; with HOP-92 NSCLC, 1.87 µM. In addition, the TGI stood at 2.58 µM with A549 NSCLC, 1.62 µM with HCT-15 colon, 1.94 µM in the test on HCT-116 colon and 3.47 µM with UACC-62 melanoma.
In the case of `C[As+](C)(c1ccc(Br)c([N+](=O)[O-])c1)c1ccc(Br)c([N+](=O)[O-])c1.O=[N+]([O-])O`, the TGI in the test with BT-549 breast, with A498 renal, in the test with SF-295 CNS, in the test on UACC-257 melanoma, with SW-620 colon and with HOP-92 NSCLC was above 100 µM each time. For the same compound, the TGI in the test with A549 NSCLC, in the test with HCT-15 colon, in the test on HCT-116 colon and in the test with UACC-62 melanoma was above 100 µM in each case.
On to `O=c1c2c3c(sc2nc2n1N=C(c1ccc(Br)cc1)CS2)CCCC3`, for which the TGI in the test on BT-549 breast, in the test with A498 renal, with SF-295 CNS, with UACC-257 melanoma, with SW-620 colon and in the test with HOP-92 NSCLC was above 100 µM each time. The TGI in the test with A549 NSCLC, in the test on HCT-15 colon, in the test with HCT-116 colon and with UACC-62 melanoma was above 100 µM throughout.

For the origin of these results see PubChem BioAssay (NCI).
